Source: patent US4677110A, “N-benzoyl-N'-pyrimidinyloxyphenyl urea compounds, and antitumorous compositions containing them” (Ishihara Sangyo Kaisha Ltd., priority 1984, dated 1987)

Experiments:
[1] = test system: p-388 leukemia cells; test: Test Example 1: antitumour activity, intraperitoneal-intraperitoneal, p-388 leukemia in BDF1 mice; type: in vivo; conditions: i.p., one day and four days after i.p. inoculation, 30 days observation
Method: (Intraperitoneal-intraperitoneal) To BDF1 mice, p-388 leukemia cells were intraperitoneally inoculated in an amount of 1×10^6 cells/mouse. A test drug was intraperitoneally administered twice, i.e. one day and four days after the inoculation. […] The ratio (%) of median survival time of test and control animals was obtained with the number of survival days of mice of the control group to which a physiological saline was administered, being evaluated as 100. The comparative drugs were dispersions obtained by adding small amounts of surfactants (e.g. Tween-80) to the comparative compounds. The drugs of the present invention were those prepared in accordance with Formulation Example 4 given hereinafter. | Note: MST^1 Ratio of median survival time of test and control animals

[2] = test system: p-388 leukemia cells; test: Test Example 2: antitumour activity, intraperitoneal-oral, p-388 leukemia in BDF1 mice; type: in vivo; conditions: one day and four days after i.p. inoculation, 30 days observation
Excerpt: (intraperitoneal-oral) To BDF1 mice, p-388 leukemia cells were intraperitoneally inoculated in an amount of 1×10^6 cells/mouse. A test drug was orally administered twice i.e. one day and four days after the inoculation. […] The test drugs and comparative drugs were formulated in accordance with Formulation Example 4 given hereinafter. | Notes: MST^1 is as defined above.

[3] = Acute toxicity, intraperitoneal administration; conditions: mouse, in vivo, ip, ddY mice, suspension with Tween-80
Method: (§1) To ddY mice (10 animals), a drug containing the Compound No. 1 or No. 2 of the present invention formulated in accordance with Formulation Example 4 was orally administered in an amount of the compound of 12.5 mg/kg, whereupon no mice died.
On the other hand, a similar test was conducted by intraperitoneally administering a suspension obtained by adding a small amount of a surfactant (Tween-80) to the Compound No. 3 of the present invention, to the same mice, whereby the LD50 values were from 50 to 100 mg/kg.

[4] = Acute toxicity, oral administration; type: in vivo; conditions: mouse, in vivo; oral, ddY mice, Formulation Example 4
Method: as §1

[5] = test system: ddY mice; test: Acute toxicity, oral administration; type: in vivo; conditions: 12.5 mg/kg oral, ddY mice (10 animals), Formulation Example 4
Method: as §1

Q: For `O=C(NC(=O)c1ccccc1Cl)Nc1ccc(Oc2ncc(I)cn2)c(Cl)c1` [Comparative Compound No. 3, N-(2-chlorobenzoyl)-N'-[3-chloro-4-(5-iodo-2-pyrimidinyloxy)phenyl]urea], which “T/C (%) of MST (ratio of median survival time of test and control animals)” value ([1]; 100 mg/kg/day) is on record?
A: 236.8%

Q: Which results are given for `O=C(NC(=O)c1ccccc1[N+](=O)[O-])Nc1ccc(Oc2ncc(I)cn2)c(Cl)c1` [Comparative Compound No. 1, N-(2 nitrobenzoyl)-N'-[3-chloro-4-(5-iodo-2-pyrimidinyloxy)phenyl]urea]?
A: T/C (%) of MST (ratio of median survival time of test and control animals) ([1]; 12.5 mg/kg/day): 171%; T/C (%) of MST (ratio of median survival time of test and control animals) ([1]; 25 mg/kg/day): 230%; T/C (%) of MST (ratio of median survival time of test and control animals) ([2]; 400 mg/kg/day): 116%; T/C (%) of MST (ratio of median survival time of test and control animals) ([2]; 800 mg/kg/day): 143%; T/C (%) of MST (ratio of median survival time of test and control animals) ([2]; 1600 mg/kg/day): 186%

Q: With `O=C(NC(=O)c1ccccc1Br)Nc1ccc(Oc2ncc(I)cn2)c(Cl)c1` [Comparative Compound No. 4, N-(2-bromobenzoyl)-N'-[3-chloro-4-(5-iodo-2-pyrimidinyloxy)phenyl]urea] as the compound, how does the “T/C (%) of MST (ratio of median survival time of test and control animals)” value ([1]; 100 mg/kg/day) read?
A: 165%

Q: With `O=C(NC(=O)c1ccccc1[N+](=O)[O-])Nc1ccc(Oc2ncc(I)cn2)c(C(F)(F)F)c1` [Compound No. 3, N-(2-nitrobenzoyl)-N'-[4-(5-iodo-2-pyrimidinyloxy)-3-trifluoromethylphenyl]urea] as the compound, how does the LD50 [3] read?
A: 50 to 100 mg/kg

Q: With `O=C(NC(=O)c1ccccc1Cl)Nc1ccc(Oc2ncc(Cl)cn2)c(Cl)c1` [Comparative Compound No. 2, N-(2-chlorobenzoyl)-N'-[3-chloro-4-(5-chloro-2-pyrimidinyloxy)phenyl]urea] as the compound, how does the “T/C (%) of MST (ratio of median survival time of test and control animals)” value ([1]; 200 mg/kg/day) read?
A: 183.9%

Q: With `O=C(NC(=O)c1ccccc1[N+](=O)[O-])Nc1ccc(Oc2ncc(Br)cn2)c(C(F)(F)F)c1` [Compound No. 1, N-(N2-nitrobenzoyl)-N'-[4-(5-bromo-2-pyrimidinyloxy)-3-trifluoromethylphenyl]urea] as the compound, how does the “T/C (%) of MST (ratio of median survival time of test and control animals)” value ([1]; 3.125 mg/kg/day) read?
A: 153%

Q: What about the “T/C (%) of MST (ratio of median survival time of test and control animals)” value ([2]; 6.25 mg/kg/day) of the same compound?
A: 186%

Q: What about the LD50 [4] of the same compound?
A: ≥ 12.5 mg/kg

Q: And the mortality [5]?
A: no mice died

Q: For `O=C(NC(=O)c1ccccc1[N+](=O)[O-])Nc1ccc(Oc2ncc(Cl)cn2)c(C(F)(F)F)c1` [Compound No. 2, N-(2-nitrobenzoyl)-N'-[4-(5-chloro2-pyrimidinyloxy)-3-trifluoromethylphenyl]urea], which “T/C (%) of MST (ratio of median survival time of test and control animals)” value ([1]; 3.125 mg/kg/day) is on record?
A: 160%

Q: And the “T/C (%) of MST (ratio of median survival time of test and control animals)” value ([2]; 6.25 mg/kg/day)?
A: 167%

Q: What about the LD50 [4] of the same compound?
A: ≥ 12.5 mg/kg

Q: What about the mortality [5] of the same compound?
A: no mice died
